Results: patent publication US10947188B2, “Small molecule ferroptosis inducers” (THE TRUSTEES OF COLUMBIA UNIVERSITY IN THE CITY OF NEW YORK, priority 2016, dated 2021)

Test system: HT-1080
Assay: Modulatory profiling: Alamar Blue viability, lethal compound cotreated with death modulator (EC50, AUC); on AUC HT.BHA: reference of the scale not given here; on AUC HT.EGTA: reference of the scale not given here
Type: cell-based
Design: AUC, modulator HT.3MA / AUC, modulator HT.ALLN / AUC HT.ATA / AUC HT.ActD / AUC HT.BHA / AUC HT.BHT / AUC HT.BocD / AUC HT.CHX / AUC HT.Co2+ / AUC HT.DPQ / AUC HT.EGTA / AUC HT.Lmim / AUC HT.NAD+ / AUC HT.Nec-1 / AUC HT.SP600125 / AUC HT.TLCK / AUC HT.U0126: unit not given beside the values
Conditions: for AUC HT.ATA: HT-1080, modulator ATA; for AUC HT.ActD: HT-1080, modulator ActD; for AUC HT.BHA: HT-1080, modulator BHA; for AUC HT.BHT: HT-1080, modulator BHT; for AUC HT.BocD: HT-1080, modulator BocD; for AUC HT.CHX: HT-1080, modulator CHX; for AUC HT.Co2+: HT-1080, modulator Co2+; for AUC HT.CspA: HT-1080, modulator CspA; for AUC HT.DPQ: HT-1080, modulator DPQ; for AUC HT.EGTA: HT-1080, modulator EGTA; for AUC HT.Gd3+: HT-1080, modulator Gd3+; for AUC HT.LNAME: HT-1080, modulator LNAME; for AUC HT.Lmim: HT-1080, modulator Lmim; for AUC HT.NAD+: HT-1080, modulator NAD+; for AUC HT.NMMA: HT-1080, modulator NMMA; for HT.atoc (AUC) / HT.bCarotene (AUC) / HT.deferox (AUC) / HT.digoxin (AUC) / HT.trolox (AUC) / HT.zVAD (AUC): HT-1080; for HT.atoc (AUC): modulator atoc; for HT.bCarotene (AUC): modulator bCarotene; for HT.deferox (AUC): modulator deferox; for HT.digoxin (AUC): modulator digoxin; for HT.trolox (AUC): modulator trolox; for HT.zVAD (AUC): modulator zVAD; for AUC, modulator HT.3MA / AUC, modulator HT.ALLN: HT-1080 cells, modulatory profile value (AUC); for AUC, modulator HT.3MA: lethal compound cotreated with modulator 3MA; for AUC, modulator HT.ALLN: lethal compound cotreated with modulator ALLN

For `COC(C)(C)C#CC(=O)c1cccc2ccccc12` [CIL34], the “AUC HT.ATA” value was 0.05661, the “AUC HT.ActD” value was −0.03224 and the “AUC HT.BHA” value was 0.01628. For the same compound, the “AUC HT.BHT” value was −0.1102, the “AUC HT.BocD” value was −0.007476 and the “AUC HT.CHX” value was 0.0461. The “AUC HT.Co2+” value was 0.09926, the “AUC HT.CspA” value was −0.02181 and the “AUC HT.DPQ” value was 0.0333. The “AUC HT.EGTA” value was −0.002035, the “AUC HT.Gd3+” value was −0.02283 and the “AUC HT.LNAME” value was −0.00517. The “AUC HT.Lmim” value was −0.002139, the “AUC HT.NAD+” value was −0.005535 and the “AUC HT.NMMA” value was −0.003031. For the same compound, the “HT.atoc (AUC)” value was 0.08125, the “HT.bCarotene (AUC)” value was 0.001321 and the “HT.deferox (AUC)” value was 0.1115. The “HT.digoxin (AUC)” value was −0.01032, the “HT.trolox (AUC)” value was −0.02993 and the “HT.zVAD (AUC)” value was 0.007148. The “AUC, modulator HT.3MA” value was 0.1255 and the “AUC, modulator HT.ALLN” value was 0.1551.

For `CCCCNc1c(Cl)cnn(-c2ccccc2)c1=O` [CIL36], the “AUC HT.ATA” value was 0.05274, the “AUC HT.ActD” value was −0.04409 and the “AUC HT.BHA” value was 0.0054. The “AUC HT.BHT” value was −0.1272, the “AUC HT.BocD” value was 0.002169 and the “AUC HT.CHX” value was −0.06645. The “AUC HT.Co2+” value was 0.02821, the “AUC HT.CspA” value was 0.01593 and the “AUC HT.DPQ” value was 0.05193. The “AUC HT.EGTA” value was −0.01311, the “AUC HT.Gd3+” value was −0.04267 and the “AUC HT.LNAME” value was −0.02799. The “AUC HT.Lmim” value was 0.004214, the “AUC HT.NAD+” value was −0.06378 and the “AUC HT.NMMA” value was −0.009501. The “HT.atoc (AUC)” value was 0.08942, the “HT.bCarotene (AUC)” value was −0.005276 and the “HT.deferox (AUC)” value was 0.06452. The “HT.digoxin (AUC)” value was −0.03557, the “HT.trolox (AUC)” value was 0.002425 and the “HT.zVAD (AUC)” value was −0.003588. The “AUC, modulator HT.3MA” value was 0.08327 and the “AUC, modulator HT.ALLN” value was 0.1422.

With `CN(C)CCCOS(=O)(=O)c1ccc(N2CCC(c3ccc(Cl)cc3)=N2)cc1` [CIL40] the “AUC HT.ATA” value was 0.06692, the “AUC HT.ActD” value was −0.06544 and the “AUC HT.BHA” value was −0.09372. The “AUC HT.BHT” value was −0.1505, the “AUC HT.BocD” value was 0.01176 and the “AUC HT.CHX” value was −0.02863. For the same compound, the “AUC HT.Co2+” value was 0.04911, the “AUC HT.CspA” value was −0.04697 and the “AUC HT.DPQ” value was 0.04908. For the same compound, the “AUC HT.EGTA” value was −0.02642, the “AUC HT.Gd3+” value was −0.0186 and the “AUC HT.LNAME” value was −0.01999. The “AUC HT.Lmim” value was 0.0004825, the “AUC HT.NAD+” value was −0.04749 and the “AUC HT.NMMA” value was −0.006901. The “HT.atoc (AUC)” value was 0.1232, the “HT.bCarotene (AUC)” value was −0.01785 and the “HT.deferox (AUC)” value was −0.08111. For the same compound, the “HT.digoxin (AUC)” value was −0.03539, the “HT.trolox (AUC)” value was −0.02768 and the “HT.zVAD (AUC)” value was 0.01717. For the same compound, the “AUC, modulator HT.3MA” value was 0.0807 and the “AUC, modulator HT.ALLN” value was 0.1761.
